Data reported in paper PMC8079033, “Design, synthesis, anticancer evaluation, and molecular modelling studies of novel tolmetin derivatives as potential VEGFR-2 inhibitors and apoptosis inducers” (Journal of Enzyme Inhibition and Medicinal Chemistry, 2021).

Legend:
[1] = system: panel of 60 tumour cell lines; assay: NCI 60-cell line one-dose screen, summary over the panel; assay type: cell-based, human; details: Homo sapiens, 60 cell, listed leukaemia, lung, colon, CNS, melanoma, ovarian, renal, breast lines, read-out: GI% range, potent growth inhibitory effects on the cell lines listed in the text
Method: Anticancer activity screening of the newly synthesised compounds was measured in vitro utilising 60 different human tumour cell lines provided by US National Cancer Institute according to previously reported standard procedure[41–43] as follows: Cells are inoculated into 96-well microtiter plates in 100 ml. After cell inoculation, the microtiter plates are incubated at 37 °C, 5% CO2, 95% air, and 100% relative humidity for 24 h prior to addition of experimental compounds. After 24 h, two plates of each cell line are fixed in situ with TCA, to represent a measurement of the cell population for each cell line at the time of compound addition (Tz). Experimental compounds are solubilised in dimethyl sulfoxide at 400-fold the desired final maximum test concentration and stored frozen prior to use. At the time of compound addition, an aliquot of frozen concentrate is thawed and diluted to twice the desired final maximum test concentration with a complete medium containing […] gentamicin. Aliquots of […] of the compounds dilutions are added to the appropriate microtiter wells already containing 100 ml of medium, resulting in the required final compound concentration. Following compound addition, the plates are incubated for an additional 48 h at 37 °C, 5% CO2, 95% air, and 100% relative humidity. […] The bound stain is subsequently solubilised with a 10 mM trizma base, and the absorbance is read on an automated plate reader at a wavelength of 515 nm. […] Using the absorbance measurements [time zero, (Tz), control growth, (C), and test growth in the presence of compound (Ti)], the percentage growth is calculated for each compound. […]
Fifteen newly synthesised compounds were tested for their in vitro antiproliferative activity by the National Cancer Institute (NCI), Maryland, USA[50], under the Developmental Therapeutic Program (DTP)[41]^,[43]^,[51]^,[52]. The tested compounds were evaluated at a concentration of 10 µM on a panel of 60 tumour cell lines representing leukaemia and non-small cell lung, colon, CNS, melanoma, ovarian, renal, prostate, and breast cancers. […]

Colo 205 = assay: NCI 60-cell line one-dose antiproliferative screen (SRB); assay type: cell-based; details: Homo sapiens, read-out: growth inhibition % (GI%)
Summary of the method: (§1)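 Tumour cells pre-incubated 24 h, then dosed once at 10 µM (from DMSO stock diluted in medium with gentamicin). After 48 h, TCA fixation and SRB staining; absorbance 515 nm converted to growth inhibition percentage.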

OVCAR-5 = assay: as above; assay type: cell-based; details: Homo sapiens, read-out: growth inhibition % (GI%)
Summary of the method: as §1

SK-MEL-28 = assay: as above; assay type: cell-based; details: Homo sapiens, read-out: growth inhibition % (GI%)
Summary of the method: as §1

OVCAR-3 = assay: as above; assay type: cell-based; details: Homo sapiens, read-out: growth inhibition % (GI%)
Summary of the method: as §1

KM12 = assay: as above; assay type: cell-based; details: Homo sapiens, read-out: growth inhibition % (GI%)
Summary of the method: as §1

SK-OV-3 = assay: as above; assay type: cell-based; details: Homo sapiens, read-out: growth inhibition % (GI%)
Summary of the method: as §1

SR = assay: as above; assay type: cell-based; details: Homo sapiens, read-out: growth inhibition % (GI%)
Summary of the method: as §1

BT-5 = assay: as above; assay type: cell-based; details: Homo sapiens, read-out: growth inhibition % (GI%)
Summary of the method: as §1

MALME-3M = assay: as above; assay type: cell-based; details: Homo sapiens, read-out: growth inhibition % (GI%)
Summary of the method: as §1

DU-145 = assay: as above; assay type: cell-based; details: Homo sapiens, read-out: growth inhibition % (GI%)
Summary of the method: as §1

ACHN = assay: as above; assay type: cell-based; details: Homo sapiens, read-out: growth inhibition % (GI%)
Summary of the method: as §1

UACC-257 = assay: as above; assay type: cell-based; details: Homo sapiens, read-out: growth inhibition % (GI%)
Summary of the method: as §1

TK-10 = assay: as above; assay type: cell-based; details: Homo sapiens, read-out: growth inhibition % (GI%)
Summary of the method: as §1

SK-MEL-2 = assay: as above; assay type: cell-based; details: Homo sapiens, read-out: growth inhibition % (GI%)
Summary of the method: as §1

A498 = assay: as above; assay type: cell-based; details: Homo sapiens, read-out: growth inhibition % (GI%)
Summary of the method: as §1

NCI-H460 = assay: as above; assay type: cell-based; details: Homo sapiens, read-out: growth inhibition % (GI%)
Summary of the method: as §1

HCC-2998 = assay: as above; assay type: cell-based; details: Homo sapiens, read-out: growth inhibition % (GI%)
Summary of the method: as §1

SW-620 = assay: as above; assay type: cell-based; details: Homo sapiens, read-out: growth inhibition % (GI%)
Summary of the method: as §1

MOLT-4 = assay: as above; assay type: cell-based; details: Homo sapiens, read-out: growth inhibition % (GI%)
Summary of the method: as §1

HS 578 T = assay: as above; assay type: cell-based; details: Homo sapiens, read-out: growth inhibition % (GI%)
Summary of the method: as §1

MDA-MB-435 = assay: as above; assay type: cell-based; details: Homo sapiens, read-out: growth inhibition % (GI%)
Summary of the method: as §1

HT29 = assay: as above; assay type: cell-based; details: Homo sapiens, HT-29, read-out: growth inhibition % (GI%)
Summary of the method: as §1

HL-60 (TB) = assay: as above; assay type: cell-based; details: Homo sapiens, read-out: growth inhibition % (GI%)
Summary of the method: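 For the suspension line, settled cells were fixed with 80% TCA to a final 16%; attached lines received 50% TCA to a final 10%, 4 °C. All were treated 48 h at 10 µM, then SRB-stained.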

LOX IMVI = assay: as above; assay type: cell-based; details: Homo sapiens, read-out: growth inhibition % (GI%)
Summary of the method: as §1

SNB-19 = assay: as above; assay type: cell-based; details: Homo sapiens, read-out: growth inhibition % (GI%)
Summary of the method: as §1

HOP-92 = assay: as above; assay type: cell-based; details: Homo sapiens, read-out: growth inhibition % (GI%)
Summary of the method: as §1

SF-295 = assay: as above; assay type: cell-based; details: Homo sapiens, read-out: growth inhibition % (GI%)
Summary of the method: as §1

renal (UO-31) cell line = assay: MTT cytotoxicity assay; assay type: cell-based; details: Homo sapiens, mean ± SD of three experiments
colon (HCT-15) cell line = assay: MTT cytotoxicity assay; assay type: cell-based; details: Homo sapiens, mean ± SD of three experiments
[2] = system: leukaemia HL-60 (TB) cell line; assay: MTT cytotoxicity assay; assay type: cell-based; details: Homo sapiens, mean ± SD of three experiments

Compound | inhibition at 10 µM (Colo 205) | inhibition at 10 µM (OVCAR-5) | inhibition at 10 µM (KM12) | inhibition at 10 µM (SR) | inhibition at 10 µM (BT-5) | inhibition at 10 µM (MALME-3M) | inhibition at 10 µM (DU-145) | inhibition at 10 µM (ACHN) | inhibition at 10 µM (UACC-257) | inhibition at 10 µM (A498) | inhibition at 10 µM (NCI-H460) | inhibition at 10 µM (SW-620) | inhibition at 10 µM (MOLT-4) | inhibition at 10 µM (HS 578 T) | inhibition at 10 µM (MDA-MB-435) | inhibition at 10 µM (HT29) | inhibition at 10 µM (LOX IMVI) | inhibition at 10 µM (SNB-19) | inhibition at 10 µM (HOP-92) | inhibition at 10 µM (SF-295) | other results
Cc1ccc(C(=O)c2ccc(CC(=O)NN=Cc3cccc(O)c3O)n2C)cc1 [Compound 5b, N′-(2,3-Dihydroxybenzylidene)-2–(1-methyl-5–(4-methylbenzoyl)-1H-pyrrol-2-yl) acetohydrazide] | 37% | 27.4% | 55.8% | 91.1% | 54.3% | 41.3% | 50.7% | 86.5% | 10.3% | < 10% | 91.4% | 65.8% | 88.8% | 12.6% | 38.9% | 13.3% | 82.7% | 54% | 43.8% | 16.5% | inhibition at 10 µM [1]: 60.9 to 95.9%; inhibition at 10 µM (SK-MEL-28): 20%; inhibition at 10 µM (OVCAR-3): 76.5%; inhibition at 10 µM (SK-OV-3): 32%; inhibition at 10 µM (TK-10): 61.2%; inhibition at 10 µM (SK-MEL-2): < 10%; inhibition at 10 µM (HCC-2998): 29.4%; inhibition at 10 µM (HL-60 (TB)): 95.9%; IC50 (renal (UO-31) cell line): 7.69 ± 0.41 µM; IC50 (colon (HCT-15) cell line): 6.62 ± 0.35 µM; IC50 [2]: 10.3 ± 0.55 µM
Cc1ccc(C(=O)c2ccc(CC(=O)NNC(=O)Nc3ccc(Cl)c(C(F)(F)F)c3)n2C)cc1 [Compound 8c, N-(4-Chloro-3-(trifluoromethyl)phenyl)-2–(2-(1-methyl-5–(4-methylbenzoyl)-1H-pyrrol-2-yl)acetyl)hydrazinecarboxamide] | < 10% | 10.9% | < 10% | < 10% | 11.4% | < 10% | < 10% | < 10% | 22.9% | 18.3% | 16.8% | 10.6% | 19.2% | 11.9% | 20.7% | < 10% | 10.5% | 25.8% | 13.5% | < 10% | melting point: 171 to 173 °C
Cc1ccc(C(=O)c2ccc(CC(=O)NN=Cc3ccc(O)cc3O)n2C)cc1 [Compound 5c, N′-(2,4-Dihydroxybenzylidene)-2–(1-methyl-5–(4-methylbenzoyl)-1H-pyrrol-2-yl) acetohydrazide] | 58.2% | 36.6% | 63.9% | 82.7% | 49.2% | 51.4% | 48.7% | 83.5% | 41.7% | 12.6% | 78.9% | 57.8% | 87% | 25.1% | 36.9% | 36% | 81.2% | 50.6% | 16.9% | 52.8% | inhibition at 10 µM [1]: 60.7 to 95%; inhibition at 10 µM (SK-MEL-28): 53.6%; inhibition at 10 µM (OVCAR-3): 62.8%; inhibition at 10 µM (SK-OV-3): 54.9%; inhibition at 10 µM (TK-10): 47.1%; inhibition at 10 µM (SK-MEL-2): 40.6%; inhibition at 10 µM (HCC-2998): 40.4%; inhibition at 10 µM (HL-60 (TB)): 95.5%; IC50 (renal (UO-31) cell line): 17.4 ± 0.93 µM; IC50 (colon (HCT-15) cell line): 19 ± 1.03 µM; IC50 [2]: 31.7 ± 1.7 µM
